The target in one assay is T1, GSK3-beta (Homo sapiens, UniProt P49841).
T1 construct: purchased Upstate 14-306
Nature of the assay: GSK3-beta Kinase-Glo Plus luminescent kinase assay. The format is biochemical. The settings on record: 10 μM compound; for inhibition at 10 µM: n=4, read-out: % Inhibition at 10 μM β. Here is the method:
To analyze the activity of the compounds, the said compounds were subjected to biochemical assays. The biochemical assays as performed by the undermentioned methods are used to evaluate the potency of the compounds. This potency data is the indication of the bioactivity of the organic compounds which are described as inhibitors of GSK3beta.
(§1) GSK3 assays were performed using Kinase-Glo® Plus Luminescent Kinase Assay Kit (Promega V3772/3/4 P), in assay buffer (50 mM HEPES, 30 mM Magnesium acetate, 1 mM EDTA and 1 mM EGTA, pH 7.5) in white 96-well-Optiplates (Perkin Elmer). In a typical assay reaction mix (40 μl final volume) contained 10 μl of test compound (dissolved in DMSO), 10 μl of GSM peptide substrate (Upstate Cat#12-533) 20M-GSK3-beta; 25 μM-GSK3-alpha were added followed by 10 μl of enzyme 40 ng/well-GSK3-beta (Upstate Cat#14-306); 30 ng/well-GSK3-alpha (Upstate Cat#14-492) and 1 μM ATP. After incubation at room temperature for 30 minutes, 40 μl of Kinase-Glo reagent was added to stop the reaction, followed by another 5 minutes incubation at room temperature. Luminescence was measured using Wallac 1450 MicroBeta® TriLux (PerkinElmer) Liquid Scintillation and Luminescence Counter. The activity is expressed as a difference of the consumed ATP and total ATP.
In general terms: Kinase-Glo reads ATP consumption through a luciferase reaction.

The next assay concerns the target T2, GSK3-alpha (Homo sapiens, UniProt P49840).
T2 construct: purchased Upstate 14-492
Nature of the assay: GSK3-alpha Kinase-Glo Plus luminescent kinase assay. It is filed as biochemical. As to conditions: 10 μM compound, n=3, read-out: % Inhibition at 10 μM α. How it is done: as §1

Structures are written as SMILES.

T2 sequence (P49840 whole entry): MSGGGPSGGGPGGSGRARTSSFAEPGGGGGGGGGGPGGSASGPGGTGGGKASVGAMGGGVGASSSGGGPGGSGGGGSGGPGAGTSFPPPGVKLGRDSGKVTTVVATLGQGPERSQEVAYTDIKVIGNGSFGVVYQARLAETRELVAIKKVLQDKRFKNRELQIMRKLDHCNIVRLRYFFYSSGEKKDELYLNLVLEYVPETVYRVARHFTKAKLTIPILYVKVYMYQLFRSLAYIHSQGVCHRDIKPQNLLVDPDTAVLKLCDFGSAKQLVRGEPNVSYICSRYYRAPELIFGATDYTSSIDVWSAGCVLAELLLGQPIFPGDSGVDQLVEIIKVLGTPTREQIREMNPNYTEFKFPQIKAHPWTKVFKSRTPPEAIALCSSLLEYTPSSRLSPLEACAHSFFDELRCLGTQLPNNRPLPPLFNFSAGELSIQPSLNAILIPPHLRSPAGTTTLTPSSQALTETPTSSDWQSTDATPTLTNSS
T1 sequence (P49841 whole entry): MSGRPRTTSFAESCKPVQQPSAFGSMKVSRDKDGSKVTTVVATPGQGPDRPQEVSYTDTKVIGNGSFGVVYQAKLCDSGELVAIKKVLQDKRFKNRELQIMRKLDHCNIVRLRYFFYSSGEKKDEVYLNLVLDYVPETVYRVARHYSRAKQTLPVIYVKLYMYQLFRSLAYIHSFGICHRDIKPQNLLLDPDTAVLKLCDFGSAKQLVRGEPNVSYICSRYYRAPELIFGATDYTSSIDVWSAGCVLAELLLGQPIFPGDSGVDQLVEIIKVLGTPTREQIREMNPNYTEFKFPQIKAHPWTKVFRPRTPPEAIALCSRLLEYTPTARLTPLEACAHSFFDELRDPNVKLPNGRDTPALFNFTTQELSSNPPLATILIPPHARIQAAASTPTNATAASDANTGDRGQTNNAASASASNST

As for `CCOC(=O)Cn1cc(-c2ccco2)c(=O)[nH]c1=O` [Compound 1, (2,4-Dioxo-5-furan-2-yl-3,4-dihydro-2H-pyrimidin-1-yl)-acetic Acid Ethyl Ester], the inhibition (as a rule, the change of the read-out against control, counted positive when it falls) at 10 µM at GSK3-beta came out at 13%; on GSK3-alpha, 9%.
Consider `CCOC(=O)Cn1cc(-c2cccs2)c(=O)[nH]c1=O` [Compound 2, (2,4-Dioxo-5-thiophen-2-yl-3,4-dihydro-2H-pyrimidin-1-yl)-acetic acid Ethyl Ester], for which the inhibition at 10 µM at GSK3-beta is 77%; on GSK3-alpha, 68%.
For the molecule `O=c1[nH]c(=O)n(Cc2ccc(F)cc2)cc1-c1cccs1` [Compound 3, 1-(4-Fluoro-benzyl)-5-thiophen-2-yl-1H-pyrimidine-2,4-dione], the % Inhibition (commonly the drop in the measured response relative to a control, in per cent) at 10 μM β at GSK3-beta (n=4, 10 µM) came out at 68%. In addition, the inhibition at 10 µM on GSK3-beta was 66%; at GSK3-alpha, 11%.
Take `O=c1[nH]c(=O)n(Cc2ccc(F)cc2)cc1-c1ccco1` [Compound 4, 1-(4-Fluoro-benzyl)-5-furan-2-yl-1H-pyrimidine-2,4-dione]: the inhibition at 10 µM came to 56% on GSK3-beta and 72% on GSK3-alpha.
The matching figures for `N#Cc1ccc(Cn2cc(-c3ccco3)c(=O)[nH]c2=O)cc1` [Compound 5, 4-(2,4-Dioxo-5-furan-2-yl-3,4-dihydro-2H-pyrimidin-1-ylmethyl)-benzonitrile]: 46% and 17%.
The matching figures for `O=c1[nH]c(=O)n(Cc2ccccc2)cc1-c1cccs1` [Compound 6, 1-Benzyl-5-thiophen-2-yl-1H-pyrimidine-2,4-dione]: 45% and 10%.
The matching figures for `N#Cc1cccc(Cn2cc(-c3cccs3)c(=O)[nH]c2=O)c1` [Compound 7, 3-(2,4-dioxo-5-thiophen-2-yl-3,4-dihydro-2H-pyrimidin-1-ylmethyl)-benzonitrile]: 45% and 16%.
On to `N#Cc1cccc(Cn2c(=O)[nH]cc(-c3cccs3)c2=O)c1` [Compound 8, 3-(2,6-Dioxo-5-thiophen-2-yl-3,6-dihydro-2H-pyrimidin-1-ylmethyl)-benzonitrile], for which the inhibition at 10 µM on GSK3-beta was found to be 78%; on GSK3-alpha, 54%.
The corresponding values for `N#Cc1cccc(Cn2c(=O)[nH]cc(-c3ccco3)c2=O)c1` [Compound 9, 3-(5-furan-2-yl-2,6-dioxo-3,6-dihydro-2H-pyrimidin-1-ylmethyl)-benzonitrile] are 64% and 22%.
The matching figures for `O=c1[nH]cc(-c2cccs2)c(=O)n1Cc1ccc(F)cc1` [Compound 10, 3-(4-fluoro-benzyl)-5-thiophen-2-yl-1H-pyrimidine-2,4-dione]: 13% and 6%.
The corresponding values for `O=c1[nH]cc(-c2ccco2)c(=O)n1Cc1ccc(F)cc1` [Compound 11, 3-(4-fluoro-benzyl)-5-furan-2-yl-1H-pyrimidine-2,4-dione] are 46% and 16%.
With `O=c1[nH]cc(-c2ccco2)c(=O)n1Cc1ccc([N+](=O)[O-])cc1` [Compound 12, 3-(4-nitro-benzyl)-5-furan-2-yl-1H-pyrimidine-2,4-dione], the inhibition at 10 µM at GSK3-beta stood at 75%; at GSK3-alpha it was 55%.
On to `CCOC(=O)Cn1c(=O)[nH]cc(-c2ccco2)c1=O` [Compound 13, (2,6-dioxo-5-furan-2-yl-3,6-dihydro-2H-pyrimidin-1-yl)-acetic Acid Ethyl Ester], for which the inhibition at 10 µM turned out to be 25% at GSK3-beta and 13% on GSK3-alpha.
The matching figures for `O=c1[nH]cc(-c2ccco2)c(=O)n1Cc1ccccc1` [Compound 14, 3-benzyl-5-furan-2-yl-1H-pyrimidine-2,4-dione]: 63% and 42%.
The corresponding values for `N#Cc1ccc(Cn2c(=O)[nH]cc(-c3ccco3)c2=O)cc1` [Compound 15, 4-(2,6-dioxo-5-furan-2-yl-3,6-dihydro-2H-pyrimidin-1-ylmethyl)-benzonitrile] are 21% and 14%.
The matching figures for `O=c1[nH]cc(-c2cccs2)c(=O)n1Cc1ccc([N+](=O)[O-])cc1` [Compound 17, 3-(4-nitro-benzyl)-5-thiophen-2-yl-1H-pyrimidine-2,4-dione]: 58% and 8%.
Consider `N#Cc1cccc(Cn2cc(-c3ccco3)c(=O)[nH]c2=O)c1` [Compound 18, 3-(5-furan-2-yl-2,4-dioxo-3,4-dihydro-2H-pyrimidin-1-ylmethyl)-benzonitrile], for which the inhibition at 10 µM turned out to be 31% at GSK3-beta and 10% at GSK3-alpha.
As to `N#Cc1ccc(Cn2cc(-c3cccs3)c(=O)[nH]c2=O)cc1` [Compound 19, 4-(2,4-dioxo-5-thiophen-2-yl-3,4-dihydro-2H-pyrimidin-1-ylmethyl)-benzonitrile], the results for the inhibition at 10 µM at GSK3-beta and on GSK3-alpha were 23% and 15%, respectively.
As to `O=c1[nH]cc(-c2ccco2)c(=O)n1Cc1cc(F)cc(F)c1` [Compound 20, 3-(3,5-difluoro-benzyl)-5-furan-2-yl-1H-pyrimidine-2,4-dione], the inhibition at 10 µM at GSK3-beta was determined as 53%; on GSK3-alpha it was 11%.

(Values after patent US20090149485A1, “PYRIMIDINEDIONES AS TYROSINE KINASE INHIBITORS” (Jubilant Biosys Limited, priority 2006, published 2009).)
